Assay [1] deals with carbapenemase producing K. pneumoniae. As to the kind of experiment: MIC by broth micro-dilution (CLSI), carbapenemase producing K. pneumoniae. Type of assay: cell-based, Klebsiella pneumoniae. On the technique in general: Dilution methods test growth across graded concentrations, often in twofold steps.
The subject of assay [2] is carbapenem sensitive Pseudomonas aeruginosa. Kind of assay: MIC by broth micro-dilution (CLSI), carbapenem sensitive P. aeruginosa. Format: cell-based.
Assay [3] concerns carbapenem sensitive Escherichia coli. Kind of assay: MIC by broth micro-dilution (CLSI), carbapenem sensitive E. coli. Format: cell-based.
For assay [4], the system named is methicillin-sensitive Staphylococcus aureus. Kind of assay: MIC by broth micro-dilution (CLSI), methicillin-sensitive S. aureus. Type of assay: cell-based. The following applies: MSSA S. aureus ATCC29213.
Where [5] appears, read: Klebsiella pneumoniae, ATCCBAA1705, KPC-2 K. pneumoniae ATCC BAA-1705, read-out: MIC.
[6] abbreviates: Pseudomonas aeruginosa, ATCC27853, Meropenem susceptible P. aeruginosa ATCC27853, read-out: MIC.
Where [7] appears, read: Escherichia coli, ATCC25922, ESBL −ve E. coli ATCC25922, read-out: MIC.
The mark [8] stands for this setting: Staphylococcus aureus, ATCC 29213 / MSSA, read-out: MIC.

In brackets after ≈: the same amount, converted by molar mass. Read-outs that look alike come from different tables or passages of the source.

A word on the MIC: it is the lowest concentration found to suppress growth. As to `C[C@@H](NC(=O)Cn1cnnn1)[C@H]1C(=O)N2C(C(=O)O)=C(S[C@@H]3CN[C@H](C(=O)N4CCC5(CCNC5)C4)C3)[C@H](C)[C@H]12` (single isomer, unassigned) [Example 493], the MIC in assay [1] (KPC-2 K. pneumoniae ATCC BAA-1705) turned out to be 1 µg/mL (≈ 1.74 µM); in assay [2] (Meropenem susceptible P. aeruginosa ATCC27853), 0.5 µg/mL (≈ 0.872 µM); in assay [3] (ESBL −ve E. coli ATCC25922), 0.125 µg/mL (≈ 0.218 µM); in assay [4], 2 µg/mL (≈ 3.49 µM).

Consider `C[C@@H](NC(=O)CN)[C@H]1C(=O)N2C(C(=O)O)=C(S[C@@H]3CN[C@H](C(=O)N4CC[C@@H](N)C4)C3)[C@H](C)[C@H]12` [Example 245], for which the minimum inhibitory concentration (MIC) in assay [1] (setting [5]) is 4 µg/mL (≈ 8.32 µM); in assay [2] (setting [6]), 4 µg/mL (≈ 8.32 µM); in assay [3] (setting [7]), 2 µg/mL (≈ 4.16 µM); in assay [4] (setting [8]), 8 µg/mL (≈ 16.6 µM).

With `CNCC(=O)N[C@H](C)[C@H]1C(=O)N2C(C(=O)O)=C(S[C@@H]3CN[C@H](CNC(=O)[C@@H]4CSCN4)C3)[C@H](C)[C@H]12` [Example 291], the MIC in assay [1] (setting [5]) was 2 µg/mL (≈ 3.8 µM); in assay [2] (setting [6]) it was 8 µg/mL (≈ 15.2 µM); in assay [3] (setting [7]), 2 µg/mL (≈ 3.8 µM); in assay [4] (setting [8]) it was 32 µg/mL (≈ 60.8 µM).

As to `C[C@@H](NC(=O)Cn1cnnn1)[C@H]1C(=O)N2C(C(=O)O)=C(S[C@@H]3CN[C@H](C(=O)N4CC5CCN(C(=N)N)C5C4)C3)[C@H](C)[C@H]12` (single isomer, unassigned) [Example 569], the MIC stood at 1 µg/mL (≈ 1.66 µM) in assay [1] (setting [5]), 2 µg/mL (≈ 3.32 µM) in assay [2] (setting [6]), 0.25 µg/mL (≈ 0.415 µM) in assay [3] (setting [7]) and 2 µg/mL (≈ 3.32 µM) in assay [4] (setting [8]).

Regarding `C[C@@H](NC(=O)Cn1cnnn1)[C@H]1C(=O)N2C(C(=O)O)=C(S[C@@H]3CN[C@H](C(=O)N4CC5CCCNC5C4)C3)[C@H](C)[C@H]12` (single isomer, unassigned) [Example 452], the MIC came to 1 µg/mL (≈ 1.74 µM) in assay [1] (setting [5]), 2 µg/mL (≈ 3.49 µM) in assay [2] (setting [6]), 0.25 µg/mL (≈ 0.436 µM) in assay [3] (setting [7]) and 2 µg/mL (≈ 3.49 µM) in assay [4] (setting [8]).

For `C[C@@H](NC(=O)CN1CCC2CNCCC21)[C@H]1C(=O)N2C(C(=O)O)=C(S[C@@H]3CN[C@H](C(=O)N(C)C)C3)[C@H](C)[C@H]12` (single isomer, unassigned) [Example 519], the MIC is 16 µg/mL (≈ 29.2 µM) in assay [1] (setting [5]), > 128 µg/mL in assay [2] (setting [6]), 2 µg/mL (≈ 3.64 µM) in assay [3] (setting [7]) and 16 µg/mL (≈ 29.2 µM) in assay [4] (setting [8]).

In the case of `C[C@@H](NC(=O)C(F)F)[C@H]1C(=O)N2C(C(=O)O)=C(S[C@@H]3CN[C@H](C(=O)N4CC[C@H](NCc5cc(=O)c(O)cn5C)C4)C3)[C@H](C)[C@H]12` [Example 246], the MIC was 128 µg/mL (≈ 200 µM) in assay [1] (setting [5]), > 128 µg/mL in assay [2] (setting [6]), 8 µg/mL (≈ 12.5 µM) in assay [3] (setting [7]) and 32 µg/mL (≈ 50.1 µM) in assay [4] (setting [8]).

In the case of `C[C@@H](NC(=O)CC1CNC1)[C@H]1C(=O)N2C(C(=O)O)=C(S[C@@H]3CN[C@H](C(=O)N4CC[C@@H](N)C4)C3)[C@H](C)[C@H]12` [Example 568, (4R,5S,6R)-3-((3S,5S)-5-((R)-3-aminopyrrolidine-1-carbonyl)pyrroldin-3-ylthio)-6-((R)-1-(2-(azetidin-3-yl)acetamido)ethyl)-4-methyl-7-oxo-1-azabicyclo[3.2.0]hept-2-ene-2-carboxylic acid], the MIC was determined as 2 µg/mL (≈ 3.84 µM) in assay [1] (setting [5]), 4 µg/mL (≈ 7.68 µM) in assay [2] (setting [6]), 1 µg/mL (≈ 1.92 µM) in assay [3] (setting [7]) and 16 µg/mL (≈ 30.7 µM) in assay [4] (setting [8]).

With `CNC(=O)CC(=O)N[C@H](C)[C@H]1C(=O)N2C(C(=O)O)=C(S[C@@H]3CN[C@H](C(=O)N(C)C)C3)[C@H](C)[C@H]12` [Example 272], the MIC was 64 µg/mL (≈ 133 µM) in assay [1] (setting [5]), > 128 µg/mL in assay [2] (setting [6]), 64 µg/mL (≈ 133 µM) in assay [3] (setting [7]) and 128 µg/mL (≈ 266 µM) in assay [4] (setting [8]).

As to `C[C@@H](NC(=O)[C@H]1CC[C@@H](N)C1)[C@H]1C(=O)N2C(C(=O)O)=C(S[C@@H]3CN[C@H](C(=O)N(C)C)C3)[C@H](C)[C@H]12` [Example 266], the MIC turned out to be 8 µg/mL (≈ 16.2 µM) in assay [1] (setting [5]), 128 µg/mL (≈ 259 µM) in assay [2] (setting [6]), 2 µg/mL (≈ 4.05 µM) in assay [3] (setting [7]) and 64 µg/mL (≈ 130 µM) in assay [4] (setting [8]).

Regarding `C[C@@H](NC(=O)Cn1cnnn1)[C@H]1C(=O)N2C(C(=O)O)=C(SC3CN(C(=N)N)C3)[C@H](C)[C@H]12` [Example 515, (4R,5S,6R)-6-((R)-1-(2-(1H-tetrazol-1-yl)acetamido)ethyl)-3-(1-carbamimidoylazetidin-3-ylthio)-4-methyl-7-oxo-1-azabicyclo[3.2.0]hept-2-ene-2-carboxylic acid], the MIC stood at 1 µg/mL (≈ 2.22 µM) in assay [1] (setting [5]), 16 µg/mL (≈ 35.6 µM) in assay [2] (setting [6]), 0.25 µg/mL (≈ 0.556 µM) in assay [3] (setting [7]) and 2 µg/mL (≈ 4.45 µM) in assay [4] (setting [8]).

For `C[C@@H](NC(=O)Cn1cnnn1)[C@H]1C(=O)N2C(C(=O)O)=C(S[C@@H]3CN[C@H](CC(=O)N4CCC(N)C4)C3)[C@H](C)[C@H]12` (stereo in doubt) [Example 536, (4R,5S,6R)-6-((R)-1-(2-(1H-tetrazol-1-yl)acetamido)-ethyl)-3-((3S,5R)-5-(2-((R)-3-aminopyrrolidin-1-yl)-2-oxoethyl)pyrrolidin-3-ylthio)-4-methyl-7-oxo-1-azabicyclo[3.2.0]hept-2-ene-2-carboxylic acid], the MIC came to 2 µg/mL (≈ 3.65 µM) in assay [1] (setting [5]), 4 µg/mL (≈ 7.3 µM) in assay [2] (setting [6]), 0.25 µg/mL (≈ 0.457 µM) in assay [3] (setting [7]) and 2 µg/mL (≈ 3.65 µM) in assay [4] (setting [8]).

Turning to `C[C@@H](NC(=O)Cn1cnnn1)[C@H]1C(=O)N2C(C(=O)O)=C(S[C@@H]3CN[C@H](C(=O)N4CC[N+](C)(C)CC4)C3)[C@H](C)[C@H]12` [Example 360, 4-((2S,4S)-((4R,5S,6R)-6-((R)-1-(2-(1H-tetrazol-1-yl)acetamido)ethyl)-2-carboxy-4-methyl-7-oxo-1-azabicyclo[3.2.0]hept-2-en-3-ylthio)pyrrolidine-2-carbonyl)-1,1-dimethylpiperazin-1-ium iodide], the MIC came out at 2 µg/mL in assay [1] (setting [5]), 1 µg/mL in assay [2] (setting [6]), 0.5 µg/mL in assay [3] (setting [7]) and 8 µg/mL in assay [4] (setting [8]).

`C[C@@H](NC(=O)Cn1cnnn1)[C@H]1C(=O)N2C(C(=O)O)=C(S[C@@H]3CN[C@H](C(=O)N4C[C@H]5C[C@H](N)C[C@@]5(CO)C4)C3)[C@H](C)[C@H]12` [Example 526, (4R,5S,6R)-6-((R)-1-(2-(1H-tetrazol-1-yl)acetamido)ethyl)-3-((3S,5S)-5-((3aS,5S,6aS)-5-amino-3a-(hydroxymethyl)octahydrocyclopenta[c]pyrrole-2-carbonyl)pyrrolidin-3-ylthio)-4-methyl-7-oxo-1-azabicyclo[3.2.0]hept-2-ene-2-carboxylic acid]: the MIC in assay [1] (setting [5]) came out at 2 µg/mL (≈ 3.31 µM); in assay [2] (setting [6]) it was 1 µg/mL (≈ 1.66 µM); in assay [3] (setting [7]), 0.25 µg/mL (≈ 0.414 µM); in assay [4] (setting [8]), 4 µg/mL (≈ 6.63 µM).

On to `C[C@@H](NC(=O)Cn1cnnn1)[C@H]1C(=O)N2C(C(=O)O)=C(S[C@@H]3CN[C@H](C(=O)N4C[C@H]5C[C@H](N)C[C@@]5(N)C4)C3)[C@H](C)[C@H]12` [Example 574, (4R,5S,6R)-6-((R)-1-(2-(1H-tetrazol-1-yl)acetamido)ethyl)-3-((3S,5S)-5-((3aS,5S,6aR)-3a,5-diaminooctahydrocyclo-penta[c]pyrrole-2-carbonyl)pyrrolidin-3-ylthio)-4-methyl-7-oxo-1-azabicyclo[3.2.0]hept-2-ene-2-carboxylic acid], for which the MIC in assay [1] (setting [5]) was determined as 4 µg/mL (≈ 6.79 µM); in assay [2] (setting [6]), 2 µg/mL (≈ 3.4 µM); in assay [3] (setting [7]), 0.5 µg/mL (≈ 0.849 µM); in assay [4] (setting [8]), 8 µg/mL (≈ 13.6 µM).

As to `C[C@@H](NC(=O)Cn1cnnn1)[C@H]1C(=O)N2C(C(=O)O)=C(S[C@@H]3CN[C@H](C(=O)N4C[C@@H]5CNC[C@]5(CO)C4)C3)[C@H](C)[C@H]12` [Example 525, (4R,5S,6R)-6-((R)-1-(2-(1H-tetrazol-1-yl)acetamido)ethyl)-3-((3S,5S)-5-((3aS,6aS)-3a-(hydroxymethyl)octahydropyrrolo[3,4-c]pyrrole-2-carbonyl)pyrrolidin-3-ylthio)-4-methyl-7-oxo-1-azabicyclo[3.2.0]hept-2-ene-2-carboxylic acid], the MIC was 2 µg/mL (≈ 3.39 µM) in assay [1] (setting [5]), 0.5 µg/mL (≈ 0.848 µM) in assay [2] (setting [6]), 0.25 µg/mL (≈ 0.424 µM) in assay [3] (setting [7]) and 4 µg/mL (≈ 6.78 µM) in assay [4] (setting [8]).

For the compound `C[C@@H](NC(=O)C(F)F)[C@H]1C(=O)N2C(C(=O)O)=C(S[C@@H]3CN[C@H](C(=O)N(C)Cc4cc(=O)c(O)cn4C)C3)[C@H](C)[C@H]12` [Example 243], the MIC in assay [1] (setting [5]) was 32 µg/mL (≈ 54.8 µM); in assay [2] (setting [6]) it was > 128 µg/mL; in assay [3] (setting [7]), 16 µg/mL (≈ 27.4 µM); in assay [4] (setting [8]) it was 32 µg/mL (≈ 54.8 µM).

For `C[C@@H](NC(=O)c1ccccc1-n1cnnn1)[C@H]1C(=O)N2C(C(=O)O)=C(S[C@@H]3CN[C@H](C(=O)N4CC[C@@H](N)C4)C3)[C@H](C)[C@H]12` [Example 374, (4R,5S,6R)-6-((R)-1-(2-(1H-tetrazol-1-yl)benzamido)ethyl)-3-((3S,5S)-5-((R)-3-aminopyrrolidine-1-carbonyl)pyrrolidin-3-ylthio)-4-methyl-7-oxo-1-azabicyclo[3.2.0]hept-2-ene-2-carboxylic acid], the MIC in assay [1] (setting [5]) is > 128 µg/mL; in assay [2] (setting [6]) it was > 128 µg/mL; in assay [3] (setting [7]), 32 µg/mL (≈ 53.7 µM); in assay [4] (setting [8]), 8 µg/mL (≈ 13.4 µM).

`C[C@@H](NC(=O)CN1CCCC1)[C@H]1C(=O)N2C(C(=O)O)=C(S[C@@H]3CN[C@H](C(=O)N(C)C)C3)[C@H](C)[C@H]12` [Example 458, (4R,5S,6R)-3-((3S,5S)-5-(dimethylcarbamoyl)pyrrolidin-3-ylthio)-4-methyl-7-oxo-6-((R)-1-(2-(pyrrolidin-1-yl)acetamido)ethyl)-1-azabicyclo[3.2.0)hept-2-eoe-2-carboxylic acid]: the MIC in assay [1] (setting [5]) is 1 µg/mL (≈ 2.03 µM); in assay [2] (setting [6]), 16 µg/mL (≈ 32.4 µM); in assay [3] (setting [7]), 0.5 µg/mL (≈ 1.01 µM); in assay [4] (setting [8]) it was 16 µg/mL (≈ 32.4 µM).

For the origin of these results see US11180504B2 (ORCHID PHARMA LTD., priority 2016, dated 2021).
